This passage reports TGI results from PubChem BioAssay (NCI).

The structures appear in SMILES notation.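 1) Cells in 96-well plates. 2) Compound, 48 h, 5 concentrations. 3) Linear interpolation between surrounding doses. 4) Unreached endpoint = highest concentration. Definition used: TGI = concentration required for complete inhibition of growth.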

Test systems include HOP-92 NSCLC; T-47D breast; HOP-62 NSCLC; SF-539 CNS; OVCAR-4 ovarian; A549 NSCLC; HL-60(TB) leukemia; KM12 colon; MDA-MB-231 breast; OVCAR-3 ovarian; SK-MEL-28 melanoma; CCRF-CEM leukemia; UACC-257 melanoma; ACHN renal; TK-10 renal; SNB-19 CNS; SW-620 colon; IGROV1 ovarian; MDA-MB-435; MALME-3M melanoma.
Holding throughout (experiment): NCI tumour cell line growth inhibition, 48 h

Consider `CC1=C(C(=O)NNC(=O)C(N)=O)CC(C(=O)NNC(=O)C(N)=O)=C(C)N1`, for which the TGI in the assay on HOP-92 NSCLC, with T-47D breast, in the assay with HOP-62 NSCLC, with SF-539 CNS, in the assay with OVCAR-4 ovarian and with A549 NSCLC was above 100 µM in each case. The TGI in the assay on HL-60(TB) leukemia, in the assay with KM12 colon, in the assay on MDA-MB-231 breast, in the assay on OVCAR-3 ovarian, in the assay on SK-MEL-28 melanoma and with CCRF-CEM leukemia was above 100 µM in each case. Further, the TGI in the assay on UACC-257 melanoma, in the assay with ACHN renal, in the assay with TK-10 renal, in the assay with SNB-19 CNS, with SW-620 colon and with IGROV1 ovarian was above 100 µM each time. The TGI in the assay on MDA-MB-435 is above 100 µM.

As for `Cc1cc(S(=O)(=O)Nc2nc3ccccc3[nH]2)c(S)cc1Cl`, the TGI with HOP-92 NSCLC, in the assay on T-47D breast, with HOP-62 NSCLC, in the assay on SF-539 CNS, in the assay on OVCAR-4 ovarian and in the assay with A549 NSCLC was above 100 µM each time. For the same molecule, the TGI was above 100 µM in the assay with HL-60(TB) leukemia; above 100 µM in the assay on KM12 colon; above 100 µM in the assay with MDA-MB-231 breast; above 100 µM in the assay on OVCAR-3 ovarian; 73.5 µM in the assay on SK-MEL-28 melanoma; 80.6 µM in the assay on CCRF-CEM leukemia. Also, the TGI in the assay on UACC-257 melanoma, with ACHN renal, in the assay with TK-10 renal, in the assay with SNB-19 CNS, in the assay on SW-620 colon and with IGROV1 ovarian was above 100 µM each time. This molecule also registered a TGI in the assay on MDA-MB-435 above 100 µM.

For the molecule `COc1cc(C2=C(C)[C@@H]3CN(CC=C3c3ccc(Cl)cc3)C2)c(S(=O)(=O)O)cc1OC`, the TGI in the assay on HOP-92 NSCLC, in the assay with T-47D breast, in the assay with HOP-62 NSCLC, in the assay with OVCAR-4 ovarian, in the assay on A549 NSCLC and in the assay with KM12 colon was above 100 µM each time. Besides, the TGI in the assay on MDA-MB-231 breast, in the assay with OVCAR-3 ovarian, in the assay with SK-MEL-28 melanoma, with CCRF-CEM leukemia, in the assay on UACC-257 melanoma and in the assay on ACHN renal was above 100 µM each time. Also, the TGI in the assay with TK-10 renal, in the assay on MALME-3M melanoma, in the assay on SNB-19 CNS, in the assay on SW-620 colon, in the assay on IGROV1 ovarian and in the assay on MDA-MB-435 was above 100 µM in each case.

For `N#Cc1nc(Sc2cnsn2)c(Sc2cnsn2)nc1C#N`, the TGI in the assay on HOP-92 NSCLC is above 70.5 µM; in the assay on T-47D breast, above 27.6 µM; with HOP-62 NSCLC it was 42.4 µM; in the assay on SF-539 CNS it was 41.4 µM; in the assay on OVCAR-4 ovarian, 61.1 µM; in the assay with A549 NSCLC, above 77.4 µM. The TGI was determined as 6.24 µM with HL-60(TB) leukemia; 40.4 µM in the assay on KM12 colon; 48.7 µM in the assay on MDA-MB-231 breast; 22.1 µM with OVCAR-3 ovarian; 53.6 µM with SK-MEL-28 melanoma; 39 µM in the assay with UACC-257 melanoma. In addition, the TGI was 16 µM with ACHN renal; 12.1 µM in the assay on TK-10 renal; 33.3 µM with MALME-3M melanoma; above 78.1 µM in the assay with SNB-19 CNS; above 22.5 µM with SW-620 colon; 37.3 µM in the assay on IGROV1 ovarian. Further, in the assay on MDA-MB-435, the TGI came to 33.8 µM.

As for `CCNc1nc(N)c(C(=O)c2cccs2)s1`, the TGI was above 100 µM in the assay on HOP-92 NSCLC; 84.3 µM in the assay on T-47D breast; above 100 µM in the assay with HOP-62 NSCLC; 46.4 µM with SF-539 CNS; 77.6 µM with OVCAR-4 ovarian; above 100 µM in the assay on A549 NSCLC. Further, the TGI in the assay on HL-60(TB) leukemia was 21.9 µM; in the assay on KM12 colon, 46.7 µM; with MDA-MB-231 breast, above 100 µM; with OVCAR-3 ovarian it was above 100 µM; with SK-MEL-28 melanoma it was above 100 µM; with UACC-257 melanoma it was above 100 µM. Besides, the TGI in the assay with ACHN renal was above 100 µM; with TK-10 renal, above 100 µM; in the assay on MALME-3M melanoma, above 100 µM; in the assay with SNB-19 CNS it was above 100 µM; in the assay on SW-620 colon it was above 100 µM; with IGROV1 ovarian it was 50.3 µM. The TGI in the assay on MDA-MB-435 was 82.6 µM.

Consider `CC(=O)/C(N=Nc1ccc(-n2c(C)nc3ccc(Br)cc3c2=O)cc1)=C(/C)O`, for which the TGI in the assay with HOP-92 NSCLC, in the assay with T-47D breast, with HOP-62 NSCLC, in the assay with SF-539 CNS, with A549 NSCLC and in the assay with HL-60(TB) leukemia was above 100 µM in each case. Moreover, the TGI in the assay on KM12 colon, in the assay with MDA-MB-231 breast, in the assay on OVCAR-3 ovarian, with SK-MEL-28 melanoma, with CCRF-CEM leukemia and in the assay with UACC-257 melanoma was above 100 µM each time. Besides, the TGI in the assay on ACHN renal, in the assay with TK-10 renal, with SNB-19 CNS, in the assay with SW-620 colon, in the assay with IGROV1 ovarian and with MDA-MB-435 was above 100 µM each time.

As to `Brc1cccc(Nc2ncnc3sc4c(c23)CCC(Nc2cccc(Br)c2)C4)c1` (stereo not given), the TGI in the assay with HOP-92 NSCLC, with T-47D breast, with HOP-62 NSCLC, in the assay on OVCAR-4 ovarian, in the assay with A549 NSCLC and in the assay on KM12 colon was above 100 µM throughout. Besides, the TGI with MDA-MB-231 breast, in the assay with OVCAR-3 ovarian, in the assay with SK-MEL-28 melanoma, in the assay on CCRF-CEM leukemia, in the assay on UACC-257 melanoma and with ACHN renal was above 100 µM in each case. Further, the TGI with TK-10 renal, with MALME-3M melanoma, with SNB-19 CNS, in the assay with SW-620 colon, with IGROV1 ovarian and in the assay on MDA-MB-435 was above 100 µM throughout.
